# Where two headings read alike, the source gives them in different places.
# Experiments:
# [1] = cited from earlier work; for serious side effects: oral administration to human, estimated
# [2] = rats, cited from earlier work
# [3] = test system: cultured neural cells from the cerebral neocortex of rat embryo (E18); test: NO production (nitrite, Griess' method) in the cultured neural cells; format: cell-based; conditions: 3 hours and 5 hours after addition, FIG. 2A
# Protocol: The following experiment was done in order to confirm the NO production by neural cells, and to clarify which isozyme of three nitric oxide synthase isozymes (References el and e2) (neuronal type; nNOS, endothelial type; eNOS and inducible type; iNOS) is involved with the NO production, The cultured neural cells were prepared by using the neural cells from the cerebral neocortex of rat embryo (E18), and culturing thereof in a serum free medium for 7 days (Reference e3). The supernatant of the culture medium was collected, and the concentration of nitrite was determined, which was used as an index for the total amount of NO production (FIG. 1A). The concentration of nitrite was determined by Griess' method (Reference e4). […] The expression of NOS in the cultured cells was detected by Western blotting (FIG. 1B). The protein extracted from the cultured cells being electrophoresed on a nitrocellulose membrane was detected by labeling it with 3 anti-NOS antibodies (Transduction Lab., 1/500 to 1000 dilution), treating with peroxidase-labeled anti-IgG antibody, and visualizing by chemical luminescence reaction (ECL kit by Amersham Pharmacia Biotech). In the cultured neural cell sample, the nNOS-like immunoreaction was detected, but eNOS immunoreaction was hardly detected, and further INOS immunoreaction was not detected at all. […]
# BDNF mRNA = BDNF mRNA by quantitative RT-PCR in cultured brain neural cells; format: cell-based, rat
# Protocol: (§1) The following experiment was done in order to confirm the NO production by neural cells, and to clarify which isozyme of three nitric oxide synthase isozymes (References el and e2) (neuronal type; nNOS, endothelial type; eNOS and inducible type; iNOS) is involved with the NO production, The cultured neural cells were prepared by using the neural cells from the cerebral neocortex of rat embryo (E18), and culturing thereof in a serum free medium for 7 days (Reference e3). The supernatant of the culture medium was collected, and the concentration of nitrite was determined, which was used as an index for the total amount of NO production (FIG. 1A). The concentration of nitrite was determined by Griess' method (Reference e4). During the cultivation, the accumulation of nitrite in the supernatant was increased. The expression of NOS in the cultured cells was detected by Western blotting (FIG. 1B). The protein extracted from the cultured cells being electrophoresed on a nitrocellulose membrane was detected by labeling it with 3 anti-NOS antibodies (Transduction Lab., 1/500 to 1000 dilution), treating with peroxidase-labeled anti-IgG antibody, and visualizing by chemical luminescence reaction (ECL kit by Amersham Pharmacia Biotech). In the cultured neural cell sample, the nNOS-like immunoreaction was detected, but eNOS immunoreaction was hardly detected, and further INOS immunoreaction was not detected at all. The product by nNOS immunoreaction as mentioned above has a molecular weight of about 160 kD, which is coincident with that of nNOS as reported in literatures. […]
# (§2) From the finding that the inhibition of NO synthesis in the cultured brain neural cells increased the expression of BDNF gene, it was clarified that endogenous NO affect the regulation of BDNF gene expression. […] SNAP was added to the culture system at various concentrations, and 3 hours and 5 hours thereafter, the BDNF MRNA was determined by quantitative RT-PCR, and the BDNF protein in the cells was determined by EIA, in the same manner as in Example 2.
# BDNF protein = BDNF protein in the cells by EIA; format: cell-based, rat; conditions: for BDNF protein in the cells: FIG. 2C
# Protocol: as §1, §2
# BDNF-trkB complex = test: BDNF release: sandwich immunoassay of BDNF-trkB complex on the cell surface; format: cell-based, rat; conditions: FIG. 3B
# From the text: The effects of an NO donor on the BDNF release were studied in order to clarify the inhibitory effects of SNAP at a high dose on the BDNF protein accumulation. First, the measurement of BDNF concentration in the culture supernatant was tried, but the concentration of BDNF therein was below a detection limitation value of an ordinary EIA, which was considered that the released BDNF immediately combines with the cell surface, even with the trkB receptor. Then, using an anti-pan-trk receptor antibody, a sandwich immunoassay was tried in order to determine the BDNF combined with a trk B receptor on the cell surface.
# [4] = test system: cultured brain neural cells; test: Growth of cultured neural cells (cytotoxicity); format: cell-based, rat; conditions: high dose (1000 μM)
# [5] = compared with other NO donors (Reference e5); cited from earlier work
smiles,measurement,setting,value
N=C(N)NCCC[C@H](N)C(=O)O [arginine],toxicity,[1]; up to 20 g per day of arginine glutamate by intravenous drip,quite low
"O=[N+]([O-])O[C@@H]1CO[C@H]2[C@@H]1OC[C@@H]2O [ISMN, isosorbide mononitrate]",LD50,[2]; i.v.,40 mg/kg
same,LD50,[2]; p.o.,1050 to 1550 mg/kg
"O=[N+]([O-])OCC(CO[N+](=O)[O-])O[N+](=O)[O-] [NTG, nitroglycerin]",serious side effects,[1]; dose up to several mg per day,does not show serious side effects
"CC(=O)NC(C(=O)O)C(C)(C)SN=O (racemic) [SNAP, S-nitroso-N-acetyl-DL-penicillamine]",NO release from the NO donor (nitrite),[3],NO was released from the NO donor
same,expression of BDNF gene,"BDNF mRNA; lower dose (30 to 300 μM), FIG. 2B",increased dose-dependently
same,expression of BDNF mRNA,"BDNF mRNA; quite high dose (1000 μM), FIG. 2B",inhibited
same,BDNF protein in the cells,BDNF protein; higher dose than 30 μM,dose-dependent decrease
same,BDNF protein in the cells,BDNF protein; only at 30 μM,increased
same,amount of the BDNF-trkB complex,BDNF-trkB complex; dose of 100 μM or more,significantly increased
same,growth of cells,[4],no change in the growth of cells
same,cytotoxicity,[5],weaker than that of other NO donors
COCC(/C(C)=C/C(=N/O)C(N)=O)[N+](=O)[O-] (stereo not shown) [NOR1],expression of BDNF gene,BDNF mRNA; dose not given,exhibited the same promoting activity
N[C@@H](CCC(=O)O)C(=O)O [glutamic acid],BDNF synthesis promoting activity,BDNF protein,potent BDNF synthesis promoting activity
same,BDNF secretion promoting activity,BDNF-trkB complex,did not show a distinguished BDNF secretion promoting activity
"O=[N+]([O-])O[C@H]1CO[C@H]2[C@@H]1OC[C@H]2O[N+](=O)[O-] [ISDN, isosorbide dinitrate]",serious side effects,[1]; dose up to dozens mg per day,does not show serious side effects
